Laboratory results reported in patent publication US12077503B2, “Substituted cyclic amides and their use as herbicides” (FMC CORPORATION, priority 2015, dated 2024).

Key:
Format in all cases: in vivo
[1] = test system: barnyardgrass (Echinochloa crus-galli); assay: Test G Pre-Emergence Protocol; conditions: Echinochloa crus-galli, pre-emergence, 312 h, evaluated after 13 days; for pest or weed control at 15.625 g/ha: 15.625 g ai/ha, read-out: Barnyard grass damage rating (100=total damage to plant; 0=no damage to plant); for pest or weed control at 62.5 g/ha: 62.5 g ai/ha, 100=total damage to plant, 0=no damage to plant, read-out: plant damage rating, Barnyardgrass; for pest or weed control at 250 g/ha: 250 g ai/ha, read-out: Barnyardgrass damage rating (100=total damage to plant; 0=no damage to plant)
In short: (§1)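 Glasshouse pre-emergence test: soil-sown seeds, sprayed after 1 d at 15.625, 62.5 or 250 g/ha. Conditions 24/16° C day/night, 14 h light, 65% humidity, watering twice daily. Rating 13 d post-spray (100 = total damage).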

[2] = test system: corn (Zea mays); assay: Test G Pre-Emergence Protocol; conditions: Zea mays, pre-emergence, 312 h, evaluated after 13 days; for plant injury at 15.625 g/ha: 15.625 g ai/ha; for plant injury at 15.625 g/ha / plant injury at 250 g/ha: read-out: Corn damage rating (100=total damage to plant; 0=no damage to plant); for plant injury at 62.5 g/ha: 62.5 g ai/ha, 100=total damage to plant, 0=no damage to plant, read-out: plant damage rating, Corn; for plant injury at 250 g/ha: 250 g ai/ha
In short: as §1

[3] = test system: giant foxtail (Setaria faberi); assay: Test G Pre-Emergence Protocol; conditions: Setaria faberi, pre-emergence, 312 h, evaluated after 13 days; for pest or weed control at 15.625 g/ha: 15.625 g ai/ha; for pest or weed control at 15.625 g/ha / pest or weed control at 250 g/ha: read-out: Foxtail, Giant damage rating (100=total damage to plant; 0=no damage to plant); for pest or weed control at 62.5 g/ha: 62.5 g ai/ha, 100=total damage to plant, 0=no damage to plant, read-out: plant damage rating, Foxtail, Giant; for pest or weed control at 250 g/ha: 250 g ai/ha
In short: as §1

[4] = test system: ivy-leaved morning glory (Ipomoea hederacea); assay: Test G Pre-Emergence Protocol; conditions: Ipomoea, pre-emergence, 312 h, evaluated after 13 days; for pest or weed control at 15.625 g/ha: 15.625 g ai/ha, read-out: Morning-glory, Ivy-leaved damage rating (100=total damage to plant; 0=no damage to plant); for pest or weed control at 62.5 g/ha: 62.5 g ai/ha, 100=total damage to plant, 0=no damage to plant, read-out: plant damage rating, Morningglory, Ivy-leaved; for pest or weed control at 250 g/ha: 250 g ai/ha, read-out: Morningglory, Ivy-leaved damage rating (100=total damage to plant; 0=no damage to plant)
In short: as §1

[5] = test system: redroot pigweed (Amaranthus retroflexus); assay: Test G Pre-Emergence Protocol; conditions: Amaranthus retroflexus, pre-emergence, 312 h, evaluated after 13 days; for pest or weed control at 15.625 g/ha: 15.625 g ai/ha; for pest or weed control at 15.625 g/ha / pest or weed control at 250 g/ha: read-out: Pigweed, Redroot damage rating (100=total damage to plant; 0=no damage to plant); for pest or weed control at 62.5 g/ha: 62.5 g ai/ha, 100=total damage to plant, 0=no damage to plant, read-out: plant damage rating, Pigweed, Redroot; for pest or weed control at 250 g/ha: 250 g ai/ha
In short: as §1

[6] = test system: velvetleaf (Abutilon theophrasti); assay: Test G Pre-Emergence Protocol; conditions: Abutilon theophrasti, pre-emergence, 312 h, evaluated after 13 days; for pest or weed control at 15.625 g/ha: 15.625 g ai/ha; for pest or weed control at 15.625 g/ha / pest or weed control at 250 g/ha: read-out: Velvetleaf damage rating (100=total damage to plant; 0=no damage to plant); for pest or weed control at 62.5 g/ha: 62.5 g ai/ha, 100=total damage to plant, 0=no damage to plant, read-out: plant damage rating, Velvetleaf; for pest or weed control at 250 g/ha: 250 g ai/ha
In short: as §1

[7] = test system: barnyardgrass (Echinochloa crus-galli); assay: Test G Post-Emergence Protocol; conditions: Echinochloa crus-galli, post-emergence, 312 h; for pest or weed control at 15.625 g/ha: 15.625 g ai/ha, evaluated after 13 days (100=total damage to plant; 0=no damage to plant), read-out: Barnyardgrass damage rating; for pest or weed control at 62.5 g/ha: 62.5 g ai/ha, read-out: Barnyardgrass damage rating (100=total damage to plant; 0=no damage to plant); for pest or weed control at 62.5 g/ha / pest or weed control at 250 g/ha: evaluated after 13 days; for pest or weed control at 250 g/ha: 250 g ai/ha, read-out: damage to plant, Barnyardgrass (100=total damage to plant; 0=no damage to plant)
In short: (§2)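 Seedlings grown 8 days in soil in a glasshouse (24/16 °C day/night, 14 h light, 65% humidity) were sprayed post-emergence with compound in acetone/water 50:50 plus 0.5% Tween 20 at 15.625, 62.5 or 250 g/ha. Damage was scored after 13 days on a 0–100 scale (100 = total damage).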

[8] = test system: corn (Zea mays); assay: Test G Post-Emergence Protocol; conditions: Zea mays, post-emergence, 312 h; for plant injury at 15.625 g/ha: 15.625 g ai/ha, evaluated after 13 days (100=total damage to plant; 0=no damage to plant), read-out: Corn damage rating; for plant injury at 62.5 g/ha: 62.5 g ai/ha, read-out: Corn damage rating (100=total damage to plant; 0=no damage to plant); for plant injury at 62.5 g/ha / plant injury at 250 g/ha: evaluated after 13 days; for plant injury at 250 g/ha: 250 g ai/ha, read-out: damage to plant, Corn (100=total damage to plant; 0=no damage to plant)
In short: as §2

[9] = test system: giant foxtail (Setaria faberi); assay: Test G Post-Emergence Protocol; conditions: Setaria faberi, post-emergence, 312 h; for pest or weed control at 15.625 g/ha: 15.625 g ai/ha, evaluated after 13 days (100=total damage to plant; 0=no damage to plant), read-out: Foxtail, Giant damage rating; for pest or weed control at 62.5 g/ha: 62.5 g ai/ha, read-out: Foxtail, Giant damage rating (100=total damage to plant; 0=no damage to plant); for pest or weed control at 62.5 g/ha / pest or weed control at 250 g/ha: evaluated after 13 days; for pest or weed control at 250 g/ha: 250 g ai/ha, read-out: damage to plant, Foxtail, Giant (100=total damage to plant; 0=no damage to plant)
In short: as §2

[10] = test system: ivy-leaved morning glory (Ipomoea hederacea); assay: Test G Post-Emergence Protocol; conditions: Ipomoea, post-emergence, 312 h; for pest or weed control at 15.625 g/ha: 15.625 g ai/ha, evaluated after 13 days (100=total damage to plant; 0=no damage to plant), read-out: Morningglory, Ivy-leaved damage rating; for pest or weed control at 62.5 g/ha: 62.5 g ai/ha, read-out: Morningglory, Ivy-leaved damage rating (100=total damage to plant; 0=no damage to plant); for pest or weed control at 62.5 g/ha / pest or weed control at 250 g/ha: evaluated after 13 days; for pest or weed control at 250 g/ha: 250 g ai/ha, read-out: damage to plant, Morningglory, Ivy-leaved (100=total damage to plant; 0=no damage to plant)
In short: as §2

[11] = test system: redroot pigweed (Amaranthus retroflexus); assay: Test G Post-Emergence Protocol; conditions: Amaranthus retroflexus, post-emergence, 312 h; for pest or weed control at 15.625 g/ha: 15.625 g ai/ha, evaluated after 13 days (100=total damage to plant; 0=no damage to plant), read-out: Pigweed, Redroot damage rating; for pest or weed control at 62.5 g/ha: 62.5 g ai/ha, read-out: Pigweed, Redroot damage rating (100=total damage to plant; 0=no damage to plant); for pest or weed control at 62.5 g/ha / pest or weed control at 250 g/ha: evaluated after 13 days; for pest or weed control at 250 g/ha: 250 g ai/ha, read-out: damage to plant, Pigweed, Redroot (100=total damage to plant; 0=no damage to plant)
In short: as §2

[12] = test system: velvetleaf (Abutilon theophrasti); assay: Test G Post-Emergence Protocol; conditions: Abutilon theophrasti, post-emergence, 312 h; for pest or weed control at 15.625 g/ha: 15.625 g ai/ha, evaluated after 13 days (100=total damage to plant; 0=no damage to plant), read-out: Velvetleaf damage rating; for pest or weed control at 62.5 g/ha: 62.5 g ai/ha, read-out: Velvetleaf damage rating (100=total damage to plant; 0=no damage to plant); for pest or weed control at 62.5 g/ha / pest or weed control at 250 g/ha: evaluated after 13 days; for pest or weed control at 250 g/ha: 250 g ai/ha, read-out: damage to plant, Velvetleaf (100=total damage to plant; 0=no damage to plant)
In short: as §2

| SMILES | pest or weed control at 15.625 g/ha [1] | pest or weed control at 62.5 g/ha [1] | pest or weed control at 250 g/ha [1] | plant injury at 15.625 g/ha [2] | plant injury at 62.5 g/ha [2] | plant injury at 250 g/ha [2] | pest or weed control at 15.625 g/ha [3] | pest or weed control at 62.5 g/ha [3] | pest or weed control at 250 g/ha [3] | pest or weed control at 15.625 g/ha [4] | pest or weed control at 62.5 g/ha [4] | pest or weed control at 250 g/ha [4] | pest or weed control at 15.625 g/ha [5] | pest or weed control at 62.5 g/ha [5] | pest or weed control at 250 g/ha [5] | pest or weed control at 15.625 g/ha [6] | pest or weed control at 62.5 g/ha [6] | pest or weed control at 250 g/ha [6] | pest or weed control at 15.625 g/ha [7] | pest or weed control at 62.5 g/ha [7] | also measured |
| --- | --- | --- | --- | --- | --- | --- | --- | --- | --- | --- | --- | --- | --- | --- | --- | --- | --- | --- | --- | --- | --- |
| CN1C[C@H](c2ccc(C(F)F)cc2)[C@@H](C(=O)Nc2ccccc2F)C1=O (racemic) [Compound 1454] | 20% | 60% | 70% | 0% | 10% | 60% | 50% | 70% | 90% | 20% | 10% | 10% | 0% | 0% | 70% | 0% | 20% | 60% | 0% | 20% | pest or weed control at 250 g/ha [7]: 20%; plant injury at 15.625 g/ha [8]: 10%; plant injury at 62.5 g/ha [8]: 20%; plant injury at 250 g/ha [8]: 30%; pest or weed control at 15.625 g/ha [9]: 30%; pest or weed control at 62.5 g/ha [9]: 60%; pest or weed control at 250 g/ha [9]: 60%; pest or weed control at 15.625 g/ha [10]: 10%; pest or weed control at 62.5 g/ha [10]: 10%; pest or weed control at 250 g/ha [10]: 10%; pest or weed control at 15.625 g/ha [11]: 0%; pest or weed control at 62.5 g/ha [11]: 20%; pest or weed control at 250 g/ha [11]: 20%; pest or weed control at 15.625 g/ha [12]: 0%; pest or weed control at 62.5 g/ha [12]: 0%; pest or weed control at 250 g/ha [12]: 10% |
| C=Cc1ccc([C@H]2CN(C)C(=O)[C@@H]2C(=O)Nc2ccccc2F)cc1 (racemic) [Compound 1457] | 0% | 0% | 50% | 0% | 0% | 0% | 0% | 20% | 90% | 0% | 0% | 0% | 0% | 0% | 0% | 0% | 0% | 0% | 0% | 10% | pest or weed control at 250 g/ha [7]: 10%; plant injury at 15.625 g/ha [8]: 0%; plant injury at 62.5 g/ha [8]: 0%; plant injury at 250 g/ha [8]: 10%; pest or weed control at 15.625 g/ha [9]: 0%; pest or weed control at 62.5 g/ha [9]: 20%; pest or weed control at 250 g/ha [9]: 50%; pest or weed control at 15.625 g/ha [10]: 0%; pest or weed control at 62.5 g/ha [10]: 0%; pest or weed control at 250 g/ha [10]: 20%; pest or weed control at 15.625 g/ha [11]: 0%; pest or weed control at 62.5 g/ha [11]: 0%; pest or weed control at 250 g/ha [11]: 0%; pest or weed control at 15.625 g/ha [12]: 0%; pest or weed control at 62.5 g/ha [12]: 0%; pest or weed control at 250 g/ha [12]: 0% |
| CN1C[C@@H](c2ccc(C(F)(F)F)nc2)[C@H](C(=O)Nc2cccc(F)c2F)C1=O (racemic) [Compound 1458] | 20% | 80% | 80% | 0% | 0% | 50% | 20% | 80% | 80% | 0% | 0% | 20% | 0% | 0% | 70% | 0% | 0% | 30% | 10% | 20% | pest or weed control at 250 g/ha [7]: 20%; plant injury at 15.625 g/ha [8]: 10%; plant injury at 62.5 g/ha [8]: 10%; plant injury at 250 g/ha [8]: 10%; pest or weed control at 15.625 g/ha [9]: 30%; pest or weed control at 62.5 g/ha [9]: 50%; pest or weed control at 250 g/ha [9]: 60%; pest or weed control at 15.625 g/ha [10]: 10%; pest or weed control at 62.5 g/ha [10]: 20%; pest or weed control at 250 g/ha [10]: 30%; pest or weed control at 15.625 g/ha [11]: 10%; pest or weed control at 62.5 g/ha [11]: 30%; pest or weed control at 250 g/ha [11]: 30%; pest or weed control at 15.625 g/ha [12]: 0%; pest or weed control at 62.5 g/ha [12]: 0%; pest or weed control at 250 g/ha [12]: 0% |
